According to patent US6355638B1, “Pyrazolo[1,5-d][1,2,4] triazines for enhancing cognition” (Merck Sharp & Dohme Ltd., priority 1999, dated 2002):

conditions: reported in Psychobiology, 21:101-108; cited from earlier work

| Compound | spatial learning in the Morris watermaze |
| --- | --- |
| COC(=O)c1cc2c(cn1)[nH]c1ccccc12 [β-CCM] | enhanced spatial learning |

conditions: background statement; cited from earlier work

| Compound | proconvulsant activity |
| --- | --- |
| COC(=O)c1cc2c(cn1)[nH]c1ccccc12 [β-CCM] | proconvulsant |

conditions: not given

| Compound | melting point |
| --- | --- |
| Cc1cc(-c2nncc3c(Br)c(OCc4ncnn4C)nn23)no1 | 239 to 241 °C |
| Cc1cc(-c2nncc3c(C(C)(C)C)c(OCc4ccncc4)nn23)no1 | 119 to 121 °C |
| Cc1cc(-c2nncc3c(C(C)(C)C)c(OCc4ncn(C)n4)nn23)no1 | 161 to 164 °C |
| Cc1cc(-c2nncc3c(C(C)(C)C)c(OCc4ccccn4)nn23)no1 | 175 to 178 °C |
| Cc1cc(-c2nncc3c(C(C)(C)C)c(OCc4cccnc4)nn23)no1 | 139 to 141 °C |
| Cc1cc(-c2nncc3c(-c4ccccc4)c(OCc4ncn(C)n4)nn23)no1 | 194 to 196 °C |
| Cc1cc(-c2nncc3c(-c4ccco4)c(OCc4ncnn4C)nn23)no1 | 226 to 228 °C |
